Measurements from PMC11537802, “The Neuroprotection of 1,2,4‐Triazole Derivative by Inhibiting Inflammation and Protecting BBB Integrity in Acute Ischemic Stroke” (CNS Neuroscience & Therapeutics, 2024).

Tests used:
[1] = system: mice model of increased peritoneal capillary permeability; experiment: acetic acid-induced increased peritoneal capillary permeability model (Evans blue in peritoneal lavage); assay type: in vivo, Kunming mice
Description: Sixty Kunming mice were randomly divided into control group, SYS18 low, medium, and high‐dose groups (20, 40, and 80 mg/kg, respectively), and positive control group was given celecoxib (40 mg/kg), 10 mice in each group. The mice in each group were administrated with 0.2 mL/10 g once a day for three consecutive days.
One hour after the last administration, 2% Evans blue saline 0.1 mL/10 g was injected via the tail vein, and 0.6% acetic acid 0.2 mL/10 g was injected intraperitoneally immediately. Twenty minutes later, the mice were killed, the abdominal cavity was cut open, and the abdominal cavity was washed several times with 5 mL normal saline to collect washing fluid. The samples were centrifuged at 4700 r/min for 5 min, and the lateral absorbance at the wavelength of 620 nm was measured with a UV spectrophotometer to compare the differences between groups.
Acetic acid‐induced increased peritoneal capillary permeability in mice is a classic model of peripheral inflammation. Anti‐inflammatory effects of SYS18 were evaluated by using an increased peritoneal capillary permeability assay. After intravenous injection of Evans blue saline solution, intraperitoneal injection of acetic acid was used to increase peritoneal capillary permeability in mice. The peritoneal capillary permeability of mice in each group was compared by collecting peritoneal lavage fluid and measuring abdominal Evans blue absorbance.

MCAO rats [2] = experiment: neurological score (Zea-Longa) in MCAO rats; assay type: in vivo, Sprague–Dawley rats; settings: 48 h after surgery
Source text: (§1) C57BL/6 mice were randomly assigned to treatment groups by body weight. Operator blind to treatment status of animals. After the mice were anesthetized, a midline cervical incision was made. The left common carotid artery and external carotid artery were isolated and ligated. Arterial clamps were placed at the preparation line and distal end of the internal carotid artery. An incision was made at the bifurcation of the common carotid artery. 4–0 nylon line was inserted to a depth of 17–20 mm. The nylon line entered the internal carotid artery; then, it entered the skull to the anterior cerebral artery and blocked all blood flow sources in the middle cerebral artery. After keeping ischemic for 1 h, the animals were re‐anesthetized and then pulled out the nylon line for about 1 cm to achieve reperfusion for up to 48 h. The wound was disinfected with iodophor, and the skin was sutured. Put them on the electric blanket to maintain the body temperature after the completion of surgery; then, they were returned to cages upon recovery. For the sham group, except that no nylon line is inserted, other steps are the same as above. Sham group and model group were given 20% polyoxyethylene castor oil. Subsequently, the animals were sacrificed, and the serum and brains were collected for a series of subsequent analyses and studies.
Rats were randomly divided into five groups: Sham group (n = 24), rats received sham operation; MCAO model group (n = 30); SYS18 low‐dose group (7.5 mg/kg, n = 30); SYS18 high‐dose group (15 mg/kg, n = 30); and Positive control group rats were intraperitoneally injected with edaravone (15 mg/kg, n = 30). […]
According to Zea‐Longa 4‐point scoring criteria, the animals were scored for neurological function at 48 h after surgery. […] And the degree of each animal model was scored as follows: 0 point, no symptoms of nerve injury; 1 point, inability to fully extend the forepaw; 2 points, circling laterally; 3 points, tip to the opposite side; 4 points, inability to walk spontaneously and loss of consciousness. […]

MCAO rats [3] = experiment: brain water content (dry/wet weight) in MCAO rats; assay type: in vivo, Sprague–Dawley rats; settings: 48 h reperfusion, model 83.18% ± 0.71%
Description: (§2) Rats were randomly divided into five groups: Sham group (n = 24), rats received sham operation; MCAO model group (n = 30); SYS18 low‐dose group (7.5 mg/kg, n = 30); SYS18 high‐dose group (15 mg/kg, n = 30); and Positive control group rats were intraperitoneally injected with edaravone (15 mg/kg, n = 30). The tested compound was dissolved in 20% polyoxyethylene castor oil and was administered 0.5 h before operation and 6, 12, 24, and 36 h after reperfusion. The measurements were carried out 48 h after the operation. Ten animals in each group were used to measure brain water content, and 10 animals in each group were used to detect Evans blue content in brain tissue. Ten animals in each group were used for determination of biochemical indicators and pathological observations and WB experiments.
The brain water content was evaluated by measuring difference between the dry and wet weights of brains. Briefly, after rats were sacrificed after 48 h of reperfusion, the brains were measured immediately to obtain the wet weights. Then, the brains were drying in a constant temperature oven at 100°C for 24 h, followed by measurements to obtain the dry weights. Brain water content was calculated according to the following formula, brain water content = 100% × (wet weight − dry weight)/wet weight.

MCAO mice = experiment: brain edema volume by T2-weighted MRI in MCAO mice; assay type: in vivo, C57BL/6 mice; settings: SYS18 30 mg/kg twice a day, about 48 h after MCAO, model 36.64% ± 2.69%, p < 0.0001
Source text: as §1
Serial brain images were acquired approximately 48 h after MCAO. […]

MDA = experiment: serum MDA in MCAO rats (kit); assay type: in vivo, Sprague–Dawley rats; settings: 15 mg/kg (high dose), 48 h, p < 0.05
Description: as §2
(§3) Blood sample was collected at 48 h after MCAO. After centrifugation at 4°C × 12,000 g for 10 min, the clear supernatant was stored at −80°C. The components of SOD, MDA, TNF‐α, and IL‐1β in the blood samples were measured according to the instructions of the assay kits.

SOD = experiment: serum SOD in MCAO rats (kit); assay type: in vivo, Sprague–Dawley rats; settings: 15 mg/kg, 48 h
Description: as §2, §3

TNF‐α = experiment: serum TNF-α in MCAO rats (ELISA); assay type: in vivo, Sprague–Dawley rats; settings: 15 mg/kg, 48 h, p < 0.05
Description: as §2, §3

IL‐1β = experiment: serum IL-1β in MCAO rats (ELISA); assay type: in vivo, Sprague–Dawley rats; settings: 15 mg/kg, 48 h, p < 0.05
Description: as §2, §3

MCAO rats [4] = experiment: hematoxylin and eosin staining of brain tissue in MCAO rats; assay type: in vivo, Sprague–Dawley rats; settings: high-dose SYS18 (15 mg/kg), 48 h ischemia–reperfusion
Description: as §2
Hematoxylin and eosin staining were used to observe the effect of SYS18 on pathological changes in ischemia–reperfusion brain tissue. After 48 h of ischemia–reperfusion, the rats were sacrificed, and the brains were immediately fixed with 4% paraformaldehyde after transcranial perfusion with ice‐cold saline (The damaged brain is located in the ischemic penumbra of the right brain. Through HE staining and pathological sectioning under a microscope, the area where neuronal cells are morphologically intact and have not yet degenerated or necrotic is determined as the ischemic penumbra). […]

MCAO rats [5] = experiment: blood–brain barrier permeability (Evans blue content in brain) in MCAO rats; assay type: in vivo, Sprague–Dawley rats; settings: 48 h
Description: as §2
The integrity of the BBB was investigated using Evans blue (EB). Forty‐six hours after reperfusion, rats were injected with EB (4% saline, 4 mL/kg) via the tail vein. Two hours later, rats were anesthetized and perfused with saline through the left ventricle until colorless perfusate. After hydrangea and brainstem were removed, the brains were collected and homogenized. Evans blue was extracted from the brain with N,N‐dimethylformamide. After centrifugation at 3700 rpm for 15 min, the absorbance of supernatant was detected at 620 nm wavelength.

syndecan‐1 = experiment: glycocalyx component syndecan-1 in MCAO rats (ELISA); assay type: in vivo, Sprague–Dawley rats; settings: SYS18 high dose 15 mg/kg, 48 h, p < 0.05
Description: as §2
(§4) Blood and brain sample were collected at 48 h after MCAO. After centrifugation at 4°C × 12,000 g for 10 min, the clear supernatant was stored at −80°C. Their concentrations of syndecan‐1, HS, and heparanase (HPSE) were determined using an ELISA kit. […] Substrates A and B were added, and the substrate was catalyzed by HRP to produce a product, which eventually converted under the action of a stop solution, and the absorbance (OD value) was measured at a wavelength of 450 nm on a microplate reader.

HS = experiment: glycocalyx component HS in serum of MCAO rats (ELISA); assay type: in vivo, Sprague–Dawley rats; settings: SYS18 high dose 15 mg/kg, 48 h, p < 0.05
Description: as §2, §4

heparanase (HPSE) = heparanase (HPSE) in brain of MCAO rats (ELISA); assay type: in vivo, Sprague–Dawley rats; settings: SYS18 high dose 15 mg/kg, 48 h, p < 0.05
Description: as §2, §4

claudin‐5 = experiment: immunofluorescence of claudin-5 in brain of MCAO rats; assay type: in vivo, Sprague–Dawley rats; settings: high-dose SYS18 (15 mg/kg)
Description: as §2
(§5) Immunofluorescence testing selects the same area as HE staining to observe and analyze the fluorescence level in the field of view. After deparaffinization of the paraffin sections to water, the tissue sections were subjected to antigen retrieval in a microwave oven in a retrieval box filled with citric acid antigen retrieval buffer (pH 6.0), and the sections were incubated overnight at 4°C with rabbit monoclonal anti‐MMP‐9 (1:100), rabbit polyclonal anti‐claudin‐5 (1:200). […]

MMP‐9 = experiment: immunofluorescence of MMP-9 in brain of MCAO rats; assay type: in vivo, Sprague–Dawley rats; settings: high-dose SYS18 (15 mg/kg)
Description: as §2, §5

[6] = blood–brain distribution and PK of SYS18 in rats after intraperitoneal injection; settings: for Kp: brain/plasma
Description: The blood samples were anticoagulated with EDTA and stored at 4°C, then centrifuged at 4°C at 4000 r/min for 10 min. The plasma concentrations were detected simultaneously (plasma stored at −80°C refrigerator). The whole brain was stored at −80°C for later detection and then uniformly prepared into brain tissue homogenate to detect drug concentration. Use Excel to analyze the drug concentration—time data pharmacokinetic parameters through atrioventricular method.

[7] = 15 mg/kg (SYS18 high dose; edaravone i.p.), model 2.42 ± 0.84, p < 0.01
[8] = 15 mg/kg (SYS18 high dose; edaravone)
[9] = 15 mg/kg (SYS18 high dose; or edaravone positive control)

Q: Which results are given for `COc1ccc(-c2nc(-c3ccccc3O)n(-c3ccc(S(N)(=O)=O)cc3)n2)c(O)c1` [SYS18, 4‐(3‐(2‐hydroxy‐4‐methoxyphenyl)‐5‐(2‐hydroxyphenyl)‐1H‐1,2,4‐triazol‐1‐yl) benzenesulfonamide]?
A: absorbance of Evans blue in peritoneal lavage fluid vs model group ([1]; SYS18 high dose 80 mg/kg once a day for 3 days): no statistical difference; absorbance of Evans blue in peritoneal lavage fluid vs model group ([1]; SYS18 low dose 20 mg/kg once a day for 3 days): did not significantly reduce; concentration of Evans blue in peritoneal lavage fluid vs model group ([1]; SYS18 medium dose 40 mg/kg once a day for 3 days): significantly reduced; neurological score (MCAO rats [2]; 7.5 mg/kg (low dose), model 2.42 ± 0.84, p > 0.05): 1.95 ± 0.74; neurological score (MCAO rats [2]; [7]): 1.52 ± 0.68; brain water content (MCAO rats [3]; 7.5 mg/kg (low dose), p > 0.05): 81.98% ± 1.18%; brain water content (MCAO rats [3]; [8]): 80.62% ± 1.73%; brain edema volume (T2-MRI) (MCAO mice): 11.01% ± 5.32%; MDA levels in serum vs model group (MDA): reduced MDA levels in serum significantly; SOD level in serum vs model group (SOD): could improve SOD level in serum; TNF-α in serum vs model group (TNF‐α): significantly decreased; IL-1β in serum vs model group (IL‐1β): significantly decreased; histological damage of nerve cells in cerebral cortex (HE staining) (MCAO rats [4]): the necrosis of nerve cell in the brain tissue was attenuated; Evans blue content in brain tissue (MCAO rats [5]; 7.5 mg/kg (low dose), p > 0.05 vs model): 7.06 ± 1.58 µg/g; Evans blue content in brain tissue (MCAO rats [5]; [9]): 5.74 ± 0.54 µg/g; syndecan-1 in brain tissue vs model group (syndecan‐1): significantly increased; HS in serum vs model group (HS): decreased; HPSE in brain tissue vs model group (heparanase (HPSE)): decreased; fluorescent intensity of claudin-5 vs model group (claudin‐5): fluorescent intensity increased; fluorescent intensity of MMP-9 vs model group (MMP‐9): decreased; Cmax ([6]; SD, rat, brain, ip, 15 mg/kg): 464 ng/g; MRT ([6]; SD, rat, brain, ip, 15 mg/kg): 7.15 h; k el ([6]; SD, rat, brain, ip, 15 mg/kg): 3.75e-05 s⁻¹; Kp ([6]; SD, rat, ip, 15 mg/kg, B/P (ratio of total drug concentration in brain to plasma), rats, 15 mg/kg i.p., at 1–2 h): > 0.2; Kp ([6]; SD, rat, ip, 15 mg/kg, B/P (ratio of total drug concentration in brain to plasma), rats, 15 mg/kg i.p., at 4–6 h): > 0.4; Kp ([6]; SD, rat, ip, 15 mg/kg, cerebral‐blood ratio of area under the curve (AUC0‐t), rats, 15 mg/kg i.p.): > 0.4; Tmax ([6]; SD, rat, in vivo, ip, 15 mg/kg): 2 h; half-life ([6]; SD, rat, in vivo, ip, 15 mg/kg): 5.12 h; CL/F ([6]; SD, rat, plasma, ip, 15 mg/kg): 16.7 mL/min/kg; Cmax ([6]; SD, rat, plasma, ip, 15 mg/kg): 1850 ng/mL; MRT ([6]; SD, rat, plasma, ip, 15 mg/kg): 3.87 h; Tmax ([6]; SD, rat, plasma, ip, 15 mg/kg): 1 h; Vd/F ([6]; SD, rat, plasma, ip, 15 mg/kg): 3 L/kg; half-life ([6]; SD, rat, plasma, ip, 15 mg/kg): 3.17 h; k el ([6]; SD, rat, plasma, ip, 15 mg/kg): 6.06e-05 s⁻¹; AUC ([6]; SD, rat, plasma, ip, 15 mg/kg, AUC0‐inf_obs, blood, rats, 15 mg/kg i.p.): 8520 ng·h/mL; AUC ([6]; SD, rat, plasma, ip, 15 mg/kg, AUC0‐t, blood, rats, 15 mg/kg i.p.): 8440 ng·h/mL; AUC ([6]; SD, rat, plasma, ip, 15 mg/kg, area under the curve (AUC0‐t), blood, rats): 8440 ng·h/mL; AUMC0‐inf_obs ([6]; blood, rats, 15 mg/kg i.p.): 32940.745 ng/mg × h^2; Tlag ([6]; blood, rats, 15 mg/kg i.p.): 0 h; AUC0‐inf_obs ([6]; brain, rats, 15 mg/kg i.p.): 3700.110 ng·h/mg; AUC0‐t ([6]; brain, rats, 15 mg/kg i.p.): 3504.387 ng·h/mg; AUMC0‐inf_obs ([6]; brain, rats, 15 mg/kg i.p.): 26458.752 ng/mg × h^2; Tlag ([6]; brain, rats, 15 mg/kg i.p.): 0 h; area under the curve (AUC0‐t) ([6]; brain, rats, i.p.): 3500 ng·h/mg

Q: With `CC1=NN(c2ccccc2)C(=O)C1` [edaravone, reference compound] as the compound, how does the neurological score (MCAO rats [2]; [7]) read?
A: Its neurological score is 1.50 ± 0.61.

Q: And the brain water content (MCAO rats [3]; [8])?
A: Its brain water content is 81.13% ± 1.98%.

Q: What about the “SOD level in serum vs model group” value (SOD) of the same compound?
A: The value was “could improve SOD level in serum”.

Q: And the “TNF-α in serum vs model group” value (TNF‐α)?
A: The value was “significantly decreased”.

Q: What about the “IL-1β in serum vs model group” value (IL‐1β) of the same compound?
A: The value was “significantly decreased”.

Q: And the “Evans blue content in brain tissue” value (MCAO rats [5]; [9])?
A: The value was 6.20 ± 2.76 µg/g.
